ChEMBL document CHEMBL5046228 (Eur J Med Chem, 2022)

What was measured:
[1] = tested on: NCI-H1975; assay: Induction of apoptosis in human NCI-H1975 cells assessed as increase in viable cells at 2.5 uM after 36 hrs by annexin-V-FITC/PI staining based flow cytometric analysis (reference value: 94.6%); format: functional
[2] = tested on: NCI-H1975; assay: Induction of apoptosis in human NCI-H1975 cells assessed as increase in viable cells at 0.5 uM after 36 hrs by annexin-V-FITC/PI staining based flow cytometric analysis (reference value: 94.6%); format: functional
[3] = tested on: NCI-H1975; assay: Induction of apoptosis in human NCI-H1975 cells assessed as increase in viable cells at 0.02 uM after 36 hrs by annexin-V-FITC/PI staining based flow cytometric analysis (reference value: 94.6%); format: functional
[4] = tested on: NCI-H1975; assay: Induction of cell cycle arrest in human NCI-H1975 cells assessed as accumulation at G0/G1 phase at 0.5 uM after 36 hrs by PI staining based flow cytometry analysis (reference value: 24.2%); format: functional
[5] = tested on: NCI-H1975; assay: Induction of cell cycle arrest in human NCI-H1975 cells assessed as accumulation at S phase at 2.5 uM after 36 hrs by PI staining based flow cytometry analysis (reference value: 32.7 %); format: functional
[6] = in vitro; conditions: human
[7] = tested on: NCI-H1975; assay: Induction of apoptosis in human NCI-H1975 cells assessed as increase in early apoptotic cells at 0.02 uM after 36 hrs by annexin-V-FITC/PI staining based flow cytometric analysis (reference value: 1.24%); format: functional
[8] = tested on: NCI-H1299; assay: Induction of cell cycle arrest in human NCI-H1299 cells assessed as accumulation at G2/M phase at 0.02 uM after 36 hrs by PI staining based flow cytometry analysis (reference value: 5.6%); format: functional
[9] = tested on: NCI-H1975; assay: Induction of apoptosis in human NCI-H1975 cells assessed as increase in necrotic cells at 0.02 uM after 36 hrs by annexin-V-FITC/PI staining based flow cytometric analysis (reference value: 0.35%); format: functional
[10] = tested on: NCI-H1975; assay: Induction of apoptosis in human NCI-H1975 cells assessed as increase in late apoptotic cells at 2.5 uM after 36 hrs by annexin-V-FITC/PI staining based flow cytometric analysis (reference value: 3.85%); format: functional
[11] = tested on: A549; assay: Antiproliferative activity against human A549 cells expressing wild type EGFR assessed as inhibition in cell viability after 72 hrs by CCK8 assay; format: functional, cell-based; conditions: A549, 72 h
[12] = tested on: NCI-H1975; assay: Induction of cell cycle arrest in human NCI-H1975 cells assessed as accumulation at G2/M phase at 0.5 uM after 36 hrs by PI staining based flow cytometry analysis (reference value: 43.1%); format: functional
[13] = tested on: NCI-H1975; assay: Induction of apoptosis in human NCI-H1975 cells assessed as increase in viable cells at 0.1 uM after 36 hrs by annexin-V-FITC/PI staining based flow cytometric analysis (reference value: 94.6%); format: functional
[14] = tested on: NCI-H1299; assay: Induction of cell cycle arrest in human NCI-H1299 cells assessed as accumulation at G0/G1 phase at 0.02 uM after 36 hrs by PI staining based flow cytometry analysis (reference value: 70.2%); format: functional
[15] = tested on: NCI-H1299; assay: Induction of cell cycle arrest in human NCI-H1299 cells assessed as accumulation at G0/G1 phase at 0.5 uM after 36 hrs by PI staining based flow cytometry analysis (reference value: 70.2%); format: functional
[16] = tested on: NCI-H1299; assay: Induction of cell cycle arrest in human NCI-H1299 cells assessed as accumulation at G0/G1 phase at 2.5 uM after 36 hrs by PI staining based flow cytometry analysis (reference value: 70.2%); format: functional
[17] = tested on: NCI-H1975; assay: Induction of apoptosis in human NCI-H1975 cells assessed as increase in late apoptotic cells at 0.5 uM after 36 hrs by annexin-V-FITC/PI staining based flow cytometric analysis (reference value: 3.85%); format: functional
[18] = target: Epidermal growth factor receptor (Homo sapiens, UniProt P00533); assay: Inhibition of wild type EGFR (unknown origin) using flurogenic substrate in presence of ATP by HTRF assay
Chain of Epidermal growth factor receptor (P00533 whole entry): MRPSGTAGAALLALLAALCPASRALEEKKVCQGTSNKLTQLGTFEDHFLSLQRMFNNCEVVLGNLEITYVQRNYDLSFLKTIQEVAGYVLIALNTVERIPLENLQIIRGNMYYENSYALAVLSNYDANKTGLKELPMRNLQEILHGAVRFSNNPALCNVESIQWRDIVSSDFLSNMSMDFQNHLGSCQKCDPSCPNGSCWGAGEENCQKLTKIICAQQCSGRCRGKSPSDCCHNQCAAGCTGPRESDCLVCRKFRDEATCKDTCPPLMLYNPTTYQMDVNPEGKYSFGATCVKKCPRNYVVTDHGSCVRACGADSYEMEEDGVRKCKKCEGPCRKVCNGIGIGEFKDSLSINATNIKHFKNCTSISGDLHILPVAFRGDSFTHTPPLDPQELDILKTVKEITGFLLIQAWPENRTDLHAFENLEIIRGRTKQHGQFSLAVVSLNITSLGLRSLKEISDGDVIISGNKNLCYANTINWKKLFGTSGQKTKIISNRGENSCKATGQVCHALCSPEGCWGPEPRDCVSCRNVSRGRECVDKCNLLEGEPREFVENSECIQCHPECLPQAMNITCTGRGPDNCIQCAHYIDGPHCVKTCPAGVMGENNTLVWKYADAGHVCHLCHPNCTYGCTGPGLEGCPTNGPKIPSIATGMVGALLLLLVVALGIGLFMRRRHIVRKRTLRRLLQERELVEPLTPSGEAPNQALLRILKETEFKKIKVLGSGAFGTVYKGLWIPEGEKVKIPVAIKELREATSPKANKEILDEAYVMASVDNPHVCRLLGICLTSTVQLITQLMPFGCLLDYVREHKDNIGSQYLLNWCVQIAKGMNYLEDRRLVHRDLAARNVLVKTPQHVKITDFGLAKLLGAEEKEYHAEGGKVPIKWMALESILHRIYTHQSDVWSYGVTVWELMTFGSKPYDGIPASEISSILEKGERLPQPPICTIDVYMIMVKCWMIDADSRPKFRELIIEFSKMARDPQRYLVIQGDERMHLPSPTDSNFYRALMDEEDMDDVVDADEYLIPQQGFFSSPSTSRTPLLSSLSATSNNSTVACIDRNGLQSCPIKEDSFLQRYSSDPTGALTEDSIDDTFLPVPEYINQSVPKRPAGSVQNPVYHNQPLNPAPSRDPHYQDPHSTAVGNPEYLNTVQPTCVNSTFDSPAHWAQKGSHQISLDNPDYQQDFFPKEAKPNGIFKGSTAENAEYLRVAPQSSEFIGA

[19] = tested on: NCI-H1299; assay: Induction of cell cycle arrest in human NCI-H1299 cells assessed as accumulation at S phase at 0.1 uM after 36 hrs by PI staining based flow cytometry analysis (reference value: 24.8%); format: functional
[20] = tested on: NCI-H1299; assay: Induction of apoptosis in human NCI-H1299 cells assessed as increase in necrotic cells at 0.02 uM after 36 hrs by annexin-V-FITC/PI staining based flow cytometric analysis (reference value: 0.75%); format: functional
[21] = tested on: NCI-H1975; assay: Induction of cell cycle arrest in human NCI-H1975 cells assessed as accumulation at S phase at 0.5 uM after 36 hrs by PI staining based flow cytometry analysis (reference value: 32.7 %); format: functional
[22] = tested on: NCI-H1299; assay: Induction of apoptosis in human NCI-H1299 cells assessed as increase in necrotic cells at 0.1 uM after 36 hrs by annexin-V-FITC/PI staining based flow cytometric analysis (reference value: 0.75%); format: functional
[23] = tested on: HCC827; assay: Antiproliferative activity against human HCC827 cells expressing EGFR del119 mutant assessed as inhibition in cell viability after 72 hrs by CCK8 assay; format: functional, cell-based; conditions: HCC827, 72 h
[24] = tested on: NCI-H1299; assay: Induction of apoptosis in human NCI-H1299 cells assessed as increase in late apoptotic cells at 0.1 uM after 36 hrs by annexin-V-FITC/PI staining based flow cytometric analysis (reference value: 4.39%); format: functional
[25] = tested on: NCI-H1975; assay: Induction of apoptosis in human NCI-H1975 cells assessed as increase in early apoptotic cells at 2.5 uM after 36 hrs by annexin-V-FITC/PI staining based flow cytometric analysis (reference value: 1.24%); format: functional
[26] = Selectivity index, ratio of IC50 Inhibition of wild type EGFR (unknown origin) to IC50 for Inhibition of EGFR T790M/C797S double mutant (unknown origin)
[27] = tested on: NCI-H1299; assay: Induction of apoptosis in human NCI-H1299 cells assessed as increase in late apoptotic cells at 2.5 uM after 36 hrs by annexin-V-FITC/PI staining based flow cytometric analysis (reference value: 4.39%); format: functional
[28] = tested on: NCI-H1975; assay: Induction of apoptosis in human NCI-H1975 cells assessed as increase in late apoptotic cells at 0.02 uM after 36 hrs by annexin-V-FITC/PI staining based flow cytometric analysis (reference value: 3.85%); format: functional
[29] = tested on: NCI-H1975; assay: Induction of cell cycle arrest in human NCI-H1975 cells assessed as accumulation at G0/G1 phase at 2.5 uM after 36 hrs by PI staining based flow cytometry analysis (reference value: 24.2%); format: functional
[30] = tested on: NCI-H1299; assay: Induction of apoptosis in human NCI-H1299 cells assessed as increase in late apoptotic cells at 0.02 uM after 36 hrs by annexin-V-FITC/PI staining based flow cytometric analysis (reference value: 4.39%); format: functional
[31] = tested on: NCI-H1299; assay: Induction of apoptosis in human NCI-H1299 cells assessed as increase in viable cells at 2.5 uM after 36 hrs by annexin-V-FITC/PI staining based flow cytometric analysis (reference value: 94.1%); format: functional
[32] = tested on: NCI-H1975; assay: cells; format: functional, cell-based; conditions: Homo sapiens, NCI-H1975, 72 h

IC50 [11]: > 100000 nM | IC50 [18]: > 10000 nM | IC50 [23]: 3.63 nM | Ratio IC50 [26]: > 2490 | IC50 [32]: 2.58 nM
Compound: C#CCN(C)CCN(C)c1cc(OC)c(Nc2nccc(Nc3cn(C)c4ccccc34)n2)cc1NC(=O)C=C
Activity [1]: 47.3% | Activity [2]: 79.2% | Activity [3]: 94.9% | Activity [4]: 18.3% | Activity [5]: 18.4% | selectivity ratio [6]: 38800 | Activity [7]: 1.98% | Activity [8]: 6.8% | Activity [9]: 0.038% | Activity [10]: 7.25% | Activity [12]: 62.6% | Activity [13]: 92.2% | Activity [14]: 70.4% | Activity [15]: 68.4% | Activity [16]: 67.5% | Activity [17]: 8.52% | Activity [19]: 23.7% | Activity [20]: 0.65% | Activity [21]: 19.1% | Activity [22]: 0.63% | Activity [24]: 5.69% | Activity [25]: 45.4% | Activity [27]: 6.35% | Activity [28]: 3.09% | Activity [29]: 17% | Activity [30]: 5.17% | Activity [31]: 92.1%
